In patent publication US10047386B2, “Biomarker for abdominal aortic aneurysm” (THE REGENTS OF THE UNIVERSITY OF CALIFORNIA, priority 2011, dated 2018):
“And” between values parts separate entries of the source, which are not always exact repeats. Equal values may be shown once. “Also recorded” adds a separate entry of the source.

Experiments:
Type in all cases: in vivo
[1] = system: hph-1 mice; assay: AAA formation in Ang II-infused hph-1 mice; settings: for AAA total morbidity / incidence rate: Ang II 0.7 mg/kg per day for 14 days, FA 15 mg/kg per day oral where given
Description: (§1) The hph-1 mice (originally in CBA background)^19 were backcrossed with C57BL6 mice for >10 generations and genotyped based on a protocol by Khoo et al.^21 Only homozygote hph-1 mice in C57BL6 background were used for experiments. WT and hph-1 male mice at 24 weeks of age were infused with Ang II (0.7 mg/kg per day) using subcutaneously implanted osmotic pumps (Durect Corp). During the 14-day infusion, blood pressure was monitored by telemetry method. Wireless blood pressure probes were implanted into the animals 10 days before the implantation of the osmotic pumps. The catheter of the blood pressure probe was inserted into the left carotid artery, whereas the body of the probe was inserted into the right flank.
(§2) WT and hph-1 mice were started on continuous oral administration of FA (15 mg/kg per day) or tail vein transfection of DHFR expression vector (pcDNA3.1-DHFR)5 in lipid-based reagent from Altogen Biosystems every other day for 14 days, starting 2 days before Ang II infusion. The mice were monitored twice per day during the infusion period of 2 weeks, and aortas were harvested for assessment of AAA formation, endothelial DHFR expression, and eNOS uncoupling activity by day 14. Animals that died suddenly during the infusion period of 14 days were inspected for aneurysm immediately and aortas were freshly harvested for experiments.

[2] = system: apoE null mice; assay: AAA formation in Ang II-infused apoE null mice; settings: for number of mice with AAA / number of mice with No AAA: Ang II 4 weeks, FA 15 mg/kg/day where given
Description: Animals were fed normal chow or customized FA chew (15 mg/kg/day) two days prior to Ang II infusion and throughout the study period of 4 weeks. Of note, 24 out of 26 Ang II infused apoE null mice (92.3%) on normal chow developed AAA (FIG. 11). […] L-NAME sensitive superoxide production, which reflects eNOS uncoupling activity, was also measured.
For this study, apoE null male animals were infused with Ang II for 4 weeks, which has been shown in literature to reliably produce AAA in 90-100% of the animals. One group of animals is fed food mixed with FA. AAA development is monitored using a noninvasive ultrasound technique during the infusion period. At the end of the four weeks, aortas from the animals were harvested and histology or biochemical assays were performed to assess for various markers of AAA and eNOS functional state.
Animals were either given regular chow, or food pellets made in house mixed with FA (15 mg/kg/day). Aorta are carefully dissected and cleaned of connective tissue from the animals after euthanasia. Blood samples (˜0.1 mL) are collected from each animal on a weekly basis and after euthanasia.
The development of AAA is monitored noninvasively via an ultrasound imaging system (Vevo 770, Visualsonics) during the Ang II-infusion period. The abdominal aortas were imaged transversely and identified via Doppler measurements for the presence of a major pulsatile flow. […] Aorta size is later measured offline from images captured. Two measurements per week after Ang II infusion, as well as two measurements before the Ang II infusion (for control) are made. AAA is defined as an enlargement of the abdominal aorta by at least 50%, and later confirmed at the experimental end point. The AAA incidence for this model was also assessed by direct inspection of abdominal aorta at time of harvest, or post-mortem in those died of sudden rupture.

[3] = system: WT mice; assay: Mean blood pressure by intracarotid telemetry, WT mice
Description: as §1
(§3) Animals were given 1 week to recover from the surgery. After this period, blood pressure was measured for 3 days to obtain a baseline. The osmotic pumps were then implanted on day 10 after surgery. Measurements were made daily from 9:00 AM to 4:00 PM at a 250-Hz sampling rate. Average blood pressure was calculated daily as the average of the entire recording period. The use of animals and experimental procedures were approved by the institutional animal care and usage committee at the University of California Los Angeles. […]

[4] = system: hph-1 mice; assay: Mean blood pressure by intracarotid telemetry, hph-1 mice
Description: as §1, §3

[5] = system: aortic H4B; assay: HPLC determination of aortic H4B content, hph-1 mice; settings: for aortic levels of H4B: hph-1 mice, Example 3, n=3 each (vehicle 1.87±0.25)
Description: (§4) Animals were given 1 week to recover from the surgery. After this period, blood pressure was measured for 3 days to obtain a baseline. The osmotic pumps were then implanted on day 10 after surgery. Measurements were made daily from 9:00 AM to 4:00 PM at a 250-Hz sampling rate. Average blood pressure was calculated daily as the average of the entire recording period. The use of animals and experimental procedures were approved by the institutional animal care and usage committee at the University of California Los Angeles. Electron spin resonance determination of aortic NO and superoxide production, high-performance liquid chromatography determination of aortic H4B content, and Western blot determination of endothelial DHFR expression were performed as published previously.^1,2,5
(§5) H4B levels are measured using a HPLC system as previously described. Briefly, aorta samples are lysed with trichloroacetic acid and DTT, subjected to acidic or alkalytic oxidation, and H4B and its oxidized species are detected with a fluorescent detector after separation in the HPLC system (Shimadzu).

[6] = system: aortic H4B; assay: HPLC determination of aortic H4B content, WT mice; settings: Ang II-infused WT mice, FA 15 mg/kg per day
Description: as §4, §5

[7] = system: aortic H4B; assay: HPLC determination of aortic H4B, apoE null mice; settings: n=6 (vehicle 4.86±0.32)
Description: as §5
(§6) Also investigated was whether FA supplementation as used above leads to improved H4B availability both in the circulation and in the vascular tissues. Ang II-infused apoE null or hph-1 mice are treated with diets supplemented with FA, and circulating and aortic H4B contents are determined using HPLC at different time points of 1, 2, 3 and 4 wks. […] It is established that it takes 3-4 weeks for AAA to develop in Ang II-infused apoE null mice, and at these time points, circulating and tissues H4B levels were indeed decreased, but restored by FA treatment (FIGS. 9-10).

[8] = system: plasma H4B; assay: HPLC determination of plasma H4B, apoE null mice; settings: n=6 each (vehicle 3.31±0.13)
Description: as §5
(§7) Blood samples are collected from Ang II-infused apoE null and hph-1 animals. Approximately 0.1 mL of blood is collected from each animal from the tail vein on a weekly basis. HPLC is used to determine the concentration of H4B in the blood samples as outlined above.
as §6

[9] = system: plasma H4B; assay: HPLC determination of plasma H4B, hph-1 mice; settings: n=3 each (vehicle 1.37±0.05)
Description: as §5, §7, §6

[10] = system: hph-1 mice; assay: Ultrasound detection of abdominal aorta size, hph-1 mice; settings: Ang II infusion, day 0 values 0.37 (Ang II) and 0.39 (FA)
Description: (§8) Animals were anesthetized with isoflurane and placed on a temperature-controlled table, which also measures ECG for heart rate. Isoflurane levels were adjusted throughout the experiment to maintain heart rate between 400 and 500 bpm while keeping the animal sufficiently anesthetized. Hair was removed from the abdomen using a hair removal cream, and preheated ultrasound transmission gel was applied onto the abdomen area. An ultrasound probe (Velvo 770, Visualsonics) was placed on the gel to visualize aorta transversely. The aorta was identified using Doppler measurement for the presence of pulsatile flow. […] Images were recorded and saved onto a PC computer for offline area analysis. Hematoxylin-eosin and Verhoeff-Van Gieson stainings were conducted following standard histological protocols.

[11] = system: endothelial DHFR; assay: Western blot of endothelial DHFR expression in aortic preparations, hph-1 mice; settings: Ang II infusion 14 days
Description: as §4
On harvest, whole aorta was cut open longitudinally and then digested with collagenase (0.6 mg/mL) at 37° C. for 20 minutes before gentle removal of endothelial cells with a cotton applicator. The supernatant containing endothelial cells was centrifuged and lysed for Western blot analysis.

[12] = system: hph-1 mice; assay: Aortic histology (H&E, VVG, macrophage staining), hph-1 mice; settings: for infiltrating macrophages: Ang II-infused mice
Description: as §8
(§9) Formalin-fixed and paraffin-embedded tissue were sectioned at 5 μm. Paraffin was removed by washing with xylene and then rehydrated with descending concentrations of ethanol. Antigen retrieval was performed by immersing the sections in an antigen retrieval buffer ([…] of citric acid, 0.01% Tween 20) at 98.5° C. for 20 minutes. Sections were washed in PBS plus 0.1% triton (PBS-T) and then blocked with 2% normal goat serum in PBS-T at room temperature for 3 hours. Sections were then incubated with primary antibody (Mac-3, BD Pharmingen, 2%, in PBS-T) overnight at 4° C. After washing with PBS-T for 1 hour, sections were incubated with secondary antibody (Alexa fluor 488, 2% in PBS-T) for 2 hours at room temperature in the dark. After washing with PBS-T for 1 hour, sections were dehydrated with ascending grades of ethanol and then xylene. Sections were mounted with Permount medium and pictures taken with a confocal microscope (Leica, SP1 inverted). MMP activity assays were performed as published previously.^22

[13] = system: MMP2; assay: MMP activity zymography of aortas, MMP2, hph-1 mice
Description: as §9
(§10) An increase in MMP activity is one of the hallmarks of AAA development. Therefore, MMP activity can be measured using a zymography technique described in detail in other studies. Briefly, aortic lysates are loaded to gelatin infused SDS-PAGE gels. After electrophoresis, gelatin in the gel is digested by MMP in the loaded samples by incubating the gel in 37° C. overnight. […]

[14] = system: MMP9; assay: MMP activity zymography of aortas, MMP9, hph-1 mice
Description: as §9, §10

[15] = system: MMP2; assay: MMP activity zymography of aortas, MMP2, WT mice
Description: as §9, §10

[16] = system: WT mice; assay: AAA formation in Ang II-infused wild-type mice; settings: Ang II 0.7 mg/kg per day, 14 days
Description: as §1, §2

[17] = system: WT mice; assay: Ultrasound detection of abdominal aorta size, WT mice; settings: Ang II infusion, day 0 value 0.53
Description: as §8

[18] = system: eNOS; assay: ESR aortic superoxide production with or without L-NAME (eNOS uncoupling), apoE null mice
Description: L-NAME sensitive superoxide production, which reflects eNOS uncoupling activity, was also measured.
The functional state of eNOS is assessed in lysed aortic samples by measuring superoxide production in the presence or absence of L-NAME using electron spin resonance (ESR, from Bruker). Under normal conditions where eNOS is coupled, the addition of the eNOS inhibitor L-NAME will increase superoxide production, as eNOS is normally producing NO to scavenge superoxide. However, under eNOS uncoupled conditions where eNOS is producing superoxide, the addition of L-NAME will decrease superoxide production. This direction of change in superoxide production will allow for an accurate assessment of eNOS function in the aortas of the animals.

[19] = system: eNOS; assay: ESR aortic superoxide production with or without L-NAME (eNOS uncoupling), hph-1 mice; settings: Ang II-infused hph-1 mice
Description: as §4
(§11) The mice were monitored twice per day during the infusion period of 2 weeks, and aortas were harvested for assessment of AAA formation, endothelial DHFR expression, and eNOS uncoupling activity by day 14. Animals that died suddenly during the infusion period of 14 days were inspected for aneurysm immediately and aortas were freshly harvested for experiments.

[20] = system: eNOS; assay: ESR aortic superoxide production with or without L-NAME (eNOS uncoupling), WT mice; settings: Ang II-infused WT mice
Description: as §4, §11

[21] = Ang II-infused hph-1 mice, FA 15 mg/kg per day

Compound: Nc1nc2ncc(CNc3ccc(C(=O)N[C@@H](CCC(=O)O)C(=O)O)cc3)nc2c(=O)[nH]1 [FA, folic acid]
- AAA formation ([1]; Ang II-infused hph-1 mice, 14 days, oral FA 15 mg/kg per day or DHFR vector tail vein transfection every other day): completely prevented and none
- AAA total morbidity / incidence rate ([1]; hph-1 mice): 0%
- AAA incidence ([2]; Ang II 1000 ng/kg/min for 4 weeks, FA 15 mg/kg/day in food where given): 16.7% and 17%
- number of mice with AAA [2]: 4
- number of mice with No AAA [2]: 20
- effect on Ang II-induced hypertension ([3]; Ang II-infused WT mice, FA 15 mg/kg per day): highly effective in attenuating
- effect on MBP decline [4, 21]: prevented the decline
- aortic H4B levels [5, 21]: even higher than baseline
- aortic levels of H4B [5]: 3.00 ± 0.64 pmol/mg
- aortic H4B levels [6]: even higher than baseline
- aortic H4B levels [7]: 6.60 ± 0.62 pmol/mg
- plasma H4B [8]: 5.80 ± 0.30 pmol/mg
- plasma levels of H4B [9]: 2.36 ± 0.25 pmol/mg
- abdominal aorta cross-sectional area at day 14 [10]: 0.52 mm^2
- endothelial DHFR expression [11]: restored
- medial degradation and adventitial inflammatory cell recruitment, H&E staining ([12]; Ang II-infused hph-1 mice): abrogated
- medial elastin flattening and rarefaction of elastin fibers, VVG staining ([12]; Ang II-infused hph-1 mice): attenuated
- infiltrating macrophages [12]: completely attenuated
- Ang II-induced MMP2 activation [13]: attenuated
- Ang II-induced MMP9 activation [14]: attenuated
- Ang II-induced MMP2 activation [15]: inhibited

Compound: angiotensin II (DRVYIHPF; Angiotensin-2; UniProt P11859 25-32, looked up) [Ang II, angiotensin II infused by osmotic pump to induce AAA and eNOS uncoupling in mice]
- AAA total morbidity / incidence rate ([1]; hph-1 mice): 79%
- no-AAA rate ([1]; hph-1 mice, Ang II 0.7 mg/kg per day, 14 days): 21%
- died or developed AAA [16]: none
- number of mice with AAA [2]: 24
- number of mice with No AAA [2]: 2
- mean blood pressure (MBP) ([3]; WT mice, day 6 of Ang II infusion (baseline 101±3)): 140±2 mm Hg
- mean blood pressure (MBP) ([4]; hph-1 mice, day 6 of Ang II infusion (baseline 112±3)): 140±2 mm Hg
- aortic levels of H4B [5]: 0.99 ± 0.11 pmol/mg
- aortic H4B levels [7]: 2.72 ± 0.26 pmol/mg
- plasma H4B [8]: 1.87 ± 0.11 pmol/mg
- plasma levels of H4B [9]: 0.92 ± 0.06 pmol/mg
- abdominal aorta cross-sectional area at day 14 [10]: 1.96 mm^2
- abdominal aorta cross-sectional area at day 14 [17]: 0.66 mm^2
- L-NAME sensitive superoxide production (eNOS uncoupling activity), fold ([18]; Ang II 4 weeks (baseline 1.17±0.06)): 2.22±0.2 fold
- L-NAME-sensitive superoxide production ([18]; Ang II 4 weeks, FA 15 mg/kg/day where given): markedly increased
- aortic superoxide production, fold increase ([18]; Ang II 4 weeks, n=6 each): 2.67±0.15 fold
- eNOS uncoupling / L-NAME-sensitive O2•− production [19]: further uncoupled; also recorded: progressive uncoupling
- eNOS uncoupling / L-NAME-sensitive O2•− production [20]: remained steady
- endothelial DHFR expression [11]: further reduced
- infiltrating macrophages [12]: dramatically upregulated
